US20250186436A1 (4E Therapeutics, Inc., priority 2021, published 2025)
Values joined by “and” are separate entries in the source; they are usually repeats but may differ in a detail not shown here. Equal entries are not always repeated. Where two headings read alike, the source gives them in different places.

What was measured:
Format in all cases: in vivo
[1] = PK study in male Sprague-Dawley rats dosed once per day for five days, PO 25 mg/kg, 0.5% HPMC (Example 8); details: 0.5% HPMC suspension
Procedure: Example 8. PK study of 4ET-03-053 in male Sprague-Dawley rats dosed once per day for five days (P0; 25 mg/kg; 0.5HPMC aqueous suspension)
(§1) Table 24 provides plasma and brain concentrations at 24 hr after the last dose of five daily PO doses of 4ET-03-053.

[2] = Plasma and brain concentrations, brain to plasma ratio 24 hr after last of five 25 mg/kg PO doses (Example 8); details: rats, 24 hr after the last of five 25 mg/kg PO doses; for concentration at 24 hr / concentration at 24 h: Sprague-Dawley, rat, oral, 25 mg/kg; for concentration at 24 h: male
Excerpt: as §1

Wistar rats = experiment: Intravenous self-administration with oxycodone and saline regimen; details: rat, in vivo
Procedure: Ten male and eleven female Wistar rats (Charles River, Hollister, CA) were used in this study. Rats were housed in groups of 2-3 per cage prior to surgery, and then individually housed to protect their catheters, in a temperature-controlled (22° C.) vivarium on a 12/12h light/dark cycle (lights off at 8:00 AM) with ad libitum access to food and water. The rats acclimated to the animal facility for at least 7 days before surgery. All procedures adhered to the National Institutes of Health Guide for the Care and Use of Laboratory Animals and were approved by the Institutional Animal Care and Use Committee of The Scripps Research Institute.
For surgery, rats were anesthetized with 2 to 3% isoflurane. They were implanted with a silastic catheter (0.3 mm i.d.×0.64 mm o.d.; Dow Corning Co. Midland, MI) into the right external jugular vein under aseptic conditions. The distal end of the catheter was subcutaneously threaded to the back of the rat where it exited via a metal guide cannula (22G; Plastics One Inc., Roanoke, VA) that was anchored at the back of the rat and closed with a small plastic cap and metal cover cap to keep the inside part of the catheter clean and protected (Caine S B, et al. “Effects of dopamine D-1 and D-2 antagonists on cocaine self-administration under different schedules of reinforcement in the rat” J Pharmacol Exp Ther. 270(1):209-18 (1994); Wee S, et al. “Effects of dose and session duration on cocaine self-administration in rats” J Pharmacol Exp Ther. 320(3):1134-43 (2007); Zorrilla E P, et al. “Extended access cocaine self-administration differentially activates dorsal raphe and amygdala corticotropin-releasing factor systems in rats” Addict Biol. 17(2):300-8 (2012); Valtcheva M V, et al. “Surgical extraction of human dorsal root ganglia from organ donors and preparation of primary sensory neuron cultures” Nat Protoc. 11:1877-1888 (2016)). All incisions were closed using veterinary tissue adhesive. After surgery, rats were given analgesic (Flunixin, 2.5 mg/kg s.c.).
Rats were allowed 5-7 days for recovery prior to self-administration.
The patency of catheters in the rats was tested using an ultra-short-acting barbiturate methohexital sodium (Brevital, Eli Lilly, Indianapolis, 1N, 10 mg/mL, 2 mg/rat) every 10-12 days during the study. Generally, a total loss of muscle tone within 3 s after a methohexital sodium injection indicates the patency of a catheter. Any animal that failed the test was excluded from the study.
During experimental sessions, each rat was placed in a standard operant chamber, which was placed in a light- and sound-attenuating cubicle (28×26×20 cm; Med Associates Inc., St. Albans, VT). The front door and the back wall of the chamber were made of transparent plastic, and the other walls were opaque metal. The chamber had two retractable response levers mounted on one side of the opaque walls. A stimulus light was mounted above each lever. A drug injection was delivered by a syringe pump (Razel Scientific Instruments, Georgia, VT) located on top of the cubicle. Experimental sessions were controlled and recorded by a PC computer with custom interface and software in the experimental room.
Experimental sessions were conducted once a day, 5-7 days a week during the dark (active) cycle. After being flushed with 0.9% saline, a rat's indwelling catheter was connected to a tube that exited the chamber through a metal spring and a swivel and was connected to a syringe pump. After the drug delivery system was connected to the rat, the chamber was closed, and the 2 hr session was started immediately. The start of a session was signaled by the presentation of two response levers into the chamber. […] During an injection, stimulus lights above both levers were illuminated and lasted throughout a time-out period (20 s) that followed each injection. Pressing the left lever was counted but had no other programmed consequences. […]

[3] = day five of daily PO 25 mg/kg, individual animals, 25 mg/kg
[4] = day five of daily PO 25 mg/kg, mean (n = 3)
[5] = male, Sprague-Dawley, rat, in vivo, po, 25 mg/kg, day five of daily PO 25 mg/kg, individual animals
[6] = male, Sprague-Dawley, rat, in vivo, po, 25 mg/kg, day five of daily PO 25 mg/kg, mean (n = 3)
[7] = male, Sprague-Dawley, rat, in vivo, po, 25 mg/kg, single PO 25 mg/kg dose, individual animals
[8] = male, Sprague-Dawley, rat, in vivo, po, 25 mg/kg, single PO 25 mg/kg dose, mean (n = 3)
[9] = single PO 25 mg/kg dose, individual animals, 25 mg/kg
[10] = single PO 25 mg/kg dose, mean (n = 3)

## Cc1cc(Nc2cc(N)ncn2)c(=O)n2c1C(=O)NC21CCC2(CC2)CC1 [4ET-03-053, 6″-((6-Aminopyrimidin-4-yl)amino)-8″-methyl-2″H-dispiro[cyclopropane-1,1′-cyclohexane-4′,3″-imidazo[1,5-a]pyridine]-1″,5″-dione]
[1]; after the last of five daily 25 mg/kg PO doses
  time to peak plasma concentration: ≤ 1 h
[1]; [3]
  AUCinf: 489.224 µg·h/mL and 471.587 µg·h/mL
  AUCinf/D: 16316 kg·h/kL and 19569 kg·h/kL and 18863 kg·h/kL
  AUClast: 403.575 µg·h/mL and 371.995 µg·h/mL
  Clast: 5340 ng/mL and 6120 ng/mL
  Cmax: 26800 ng/mL and 29900 ng/mL
  Cmax/D: 1184 kg/kL and 1072 kg/kL and 1196 kg/kL
  F: 31.7% and 38.0% and 36.6%
  MRTinf: 13.2 h and 14.8 h
  t1/2: 10.7 h and 9.67 h
[1]; [4]
  AUCinf/D: 18250 kg·h/kL
  Cmax/D: 1151 kg/kL
  F: 35.5%
[1]; male, Sprague-Dawley, rat, in vivo, po, 25 mg/kg, after the last of five daily 25 mg/kg PO doses, at 24 hr, read-out: last measurable concentration
  concentration at 24 h: 5890 ng/mL
[1]; male, Sprague-Dawley, rat, in vivo, po, 25 mg/kg, after the last of five daily 25 mg/kg PO doses, read-out: peak plasma concentration (Cmax)
  Cmax: 28800 ng/mL
[1]; male, Sprague-Dawley, rat, in vivo, po, 25 mg/kg, after the last of five daily 25 mg/kg PO doses, read-out: terminal half-life (t1/2) (converted)
  half-life: 10.5 h
[1]; male, Sprague-Dawley, rat, in vivo, po, 25 mg/kg, after the last of five daily 25 mg/kg PO doses, read-out: total systemic exposure (AUCinf)
  AUC(0-inf): 456 µg·h/mL
[1]; [5]
  AUC(0-t): 324 µg·h/mL
  MRT inf: 14.5 h
  Tmax: 1 h
[1]; male, Sprague-Dawley, rat, in vivo, po, 25 mg/kg, day five of daily PO 25 mg/kg, individual animals, read-out: AUCinf
  AUC(0-inf): 408 µg·h/mL
[1]; male, Sprague-Dawley, rat, in vivo, po, 25 mg/kg, day five of daily PO 25 mg/kg, individual animals, read-out: Clast
  concentration at 24 h: 6220 ng/mL
[1]; male, Sprague-Dawley, rat, in vivo, po, 25 mg/kg, day five of daily PO 25 mg/kg, individual animals, read-out: Cmax
  Cmax: 29600 ng/mL
[1]; male, Sprague-Dawley, rat, in vivo, po, 25 mg/kg, day five of daily PO 25 mg/kg, individual animals, read-out: t1/2 (converted)
  half-life: 11 h
[1]; [6]
  AUC(0-t): 367 µg·h/mL
  MRT inf: 14.1 h
  Tmax: 1 h
[1]; male, Sprague-Dawley, rat, in vivo, po, 25 mg/kg, day five of daily PO 25 mg/kg, mean (n = 3), read-out: AUCinf
  AUC(0-inf): 456 µg·h/mL
[1]; male, Sprague-Dawley, rat, in vivo, po, 25 mg/kg, day five of daily PO 25 mg/kg, mean (n = 3), read-out: Clast
  concentration at 24 h: 5890 ng/mL
[1]; male, Sprague-Dawley, rat, in vivo, po, 25 mg/kg, day five of daily PO 25 mg/kg, mean (n = 3), read-out: Cmax
  Cmax: 28800 ng/mL
[1]; male, Sprague-Dawley, rat, in vivo, po, 25 mg/kg, day five of daily PO 25 mg/kg, mean (n = 3), read-out: t1/2 (converted)
  half-life: 10.5 h
[1]; [7]
  AUC(0-t): 288 µg·h/mL
  MRT inf: 9.26 h
  Tmax: 1 h
[1]; male, Sprague-Dawley, rat, in vivo, po, 25 mg/kg, single PO 25 mg/kg dose, individual animals, read-out: AUCinf
  AUC(0-inf): 315 µg·h/mL
[1]; male, Sprague-Dawley, rat, in vivo, po, 25 mg/kg, single PO 25 mg/kg dose, individual animals, read-out: Clast
  concentration at 24 h: 3130 ng/mL
[1]; male, Sprague-Dawley, rat, in vivo, po, 25 mg/kg, single PO 25 mg/kg dose, individual animals, read-out: Cmax
  Cmax: 24400 ng/mL
[1]; [8]
  AUC(0-t): 312 µg·h/mL
  MRT inf: 9.25 h
  Tmax: 1.33 h
[1]; male, Sprague-Dawley, rat, in vivo, po, 25 mg/kg, single PO 25 mg/kg dose, mean (n = 3), read-out: AUCinf
  AUC(0-inf): 341 µg·h/mL
[1]; male, Sprague-Dawley, rat, in vivo, po, 25 mg/kg, single PO 25 mg/kg dose, mean (n = 3), read-out: Cmax
  Cmax: 25900 ng/mL
[1]; male, Sprague-Dawley, rat, in vivo, po, 25 mg/kg, single PO 25 mg/kg dose, mean (n = 3), read-out: t1/2 (converted)
  half-life: 6.82 h
[1]; male, Sprague-Dawley, rat, in vivo, po, 25 mg/kg, single PO 25 mg/kg, read-out: peak plasma concentration (Cmax)
  Cmax: 25900 ng/mL
[1]; male, Sprague-Dawley, rat, in vivo, po, 25 mg/kg, single PO 25 mg/kg, read-out: terminal half-life (t1/2) (converted)
  half-life: 6.82 h
[1]; male, Sprague-Dawley, rat, in vivo, po, 25 mg/kg, single PO 25 mg/kg, read-out: total systemic exposure (AUCinf)
  AUC(0-inf): 341 µg·h/mL
[1]; male, rat, in vivo, after the last of five daily 25 mg/kg PO doses
  bioavailability: 35.5%
[1]; [9]
  AUCinf: 363.793 µg·h/mL and 345.084 µg·h/mL
  AUCinf/D: 12599 kg·h/kL and 14552 kg·h/kL and 13803 kg·h/kL
  AUClast: 336.46 µg·h/mL and 313.078 µg·h/mL
  Clast: 2660 ng/mL and 2870 ng/mL
  Cmax/D: 976 kg/kL and 984 kg/kL and 1152 kg/kL
  F: 24.5% and 28.3% and 26.8%
  MRTinf: 8.89 h and 9.60 h
  t1/2: 6.94 h and 6.50 h
[1]; [10]
  AUCinf/D: 13651 kg·h/kL
  Cmax/D: 1037 kg/kL
[2]; brain homogenate, brain homogenate, mean, read-out: Tissue Homogenate Conc., Mean
  concentration at 24 hr: 122 ng/mL
[2]; brain, brain, read-out: Mean Tissue
  concentration at 24 hr: 489 ng/g
[2]; brain homogenate, brain homogenate, individual animals (n = 3), read-out: Tissue Homogenate Conc.
  concentration at 24 h: 104 ng/mL
[2]; plasma, plasma, individual animals (n = 3), read-out: Plasma Conc.
  concentration at 24 h: 5340 ng/mL
[2]; plasma, plasma, mean, read-out: Plasma Conc., Mean
  concentration at 24 h: 5890 ng/mL
[2]; brain homogenate, individual animals (n = 3)
  Tissue Homogenate Conc.: 127 ng/mL and 136 ng/mL
[2]; plasma, individual animals (n = 3)
  Plasma Conc.: 6120 ng/mL and 6220 ng/mL
Wistar rats
  Mean Difference, Šídák's multiple comparisons test: 1.500
  Summary, Šídák's multiple comparisons test: ns
  addictive potential: negligible addictive potential
  numbers of infusions, multiple comparisons test: 0.05 mg/kg 4ET-03-053 and subsequent oxycodone: significant differences
  numbers of infusions, multiple comparisons test: 0.1 mg/kg 4ET-03-053 and the final oxycodone test: significant differences
Wistar rats; 0.05 mg/kg
  Mean Difference, Šídák's multiple comparisons test: −8.041
  Summary, Šídák's multiple comparisons test: ns
Wistar rats; 0.15 mg/kg
  Mean Difference, Šídák's multiple comparisons test: 5.441
  Summary, Šídák's multiple comparisons test: ns
